The values below come from PMC10364317, “Regulation of indole‐3‐acetic acid biosynthesis and consequences of auxin production deficiency in Serratia plymuthica” (Microbial Biotechnology, 2023).

“Also recorded” adds a separate entry of the source. Where two headings read alike, the source gives them in different places.

For one data set, the system named is HpaRA153. As to the kind of experiment: Isothermal titration calorimetry of HpaRA153 with ligands. The format is binding, Serratia plymuthica A153. The protocol:
(§1) Measurements were made using a VP‐ITC microcalorimeter (MicroCal, Inc., Northampton, MA) at 10–25°C. HpaAA153 and HpaRA153 were dialyzed into 50 mM Tris, 300 mM NaCl, 10% (v/v) glycerol, 2 mM β‐mercaptoethanol, pH 8.0. Alternatively, TyrRA153 was dialyzed into 5 mM Tris, 5 mM PIPES, 5 mM MES, 150 mM NaCl, 10 mM MgCl2, 10 mM β‐mercaptoethanol, 10% (v/v) glycerol, pH 7.5. Proteins at 5–50 μM were placed into the sample cell and titrated with 3.2–12.8 μL aliquots of 0.5–10 mM ligand solutions made up in the corresponding dialysis buffers. For DNA binding studies, wild‐type and mutant oligonucleotides corresponding to the TyrR box were synthesized and annealed. Briefly, an equimolar mixture of 200 μM of each complementary oligonucleotide was prepared in 10 mM Tris, 50 mM NaCl, 1 mM EDTA, pH 7.5. This mixture was subsequently incubated at 95°C for 5 min, chilled on ice and dialyzed in the same buffer used for TyrRA153 ITC studies. A typical experiment consisted in an injection of 3.2–12.8 μL aliquots of 100 μM DNA into a 5–20 μM protein solution in the absence and presence of TyrR ligands (e.g. 1 mM L‐Trp; 1 mM L‐Phe; 0.1 mM L‐Tyr; 0.5 mM ATP). Protein‐DNA interaction studies were done at 10°C. In all cases, the mean enthalpies measured from the injection of the ligand in the buffer were subtracted from raw titration data before data analysis with the ORIGIN software (MicroCal).
(ITC needs no label: the signal is the heat of the interaction.)

A further data set has as its target HpaAA153 (Serratia plymuthica, UniProt A0A7T2WCJ6). Briefly: Isothermal titration calorimetry of HpaAA153 with ligands. The data set is classed as binding, Serratia plymuthica A153. As for the experimental part:
as §1

The test system of another data set is ipdc promoter. As to the kind of experiment: β-Galactosidase assay of the ipdc promoter fusion (P ipdc::lacZ; pMAMV302). The format is cell-based, Serratia plymuthica A153. To be noted: for induction of ipdc gene expression compared to the same medium lacking the ligand: minimal medium with 15 mM glucose, 1 mM ligand, 24 h. The protocol:
Expression of the lacZ reporter gene was monitored during growth using 2‐nitrophenyl β‐D‐galactopyranoside (ONPG; Merck) as a substrate, as described previously (Miller, [1972]). The transcriptional fusion assays were carried out using S. plymuthica A153 LacZ (control) or derived mutants.

The target in data set [1] is T1, TyrRA153 (Serratia plymuthica, UniProt A0A318P557). As to the kind of experiment: Isothermal titration calorimetry of TyrRA153 with ligands. The data set is classed as binding, Serratia plymuthica A153. To be noted: for competition with L-Tyr for binding at the ATP-dependent site of TyrRA153: 10 mM competitor, 1 mM ATP, titration with 1 mM L-Tyr. The protocol:
as §1

Details of data set [2]: method as in Patten et al., [2013]. To be noted: ref Patten et al., [2013]; cited from earlier work.
In data set [3] the target is T1, TyrRA153. Briefly: Microcalorimetric titrations of TyrRA153 with 26-bp DNA oligomers of the ipdc promoter (TyrR box). The format is binding, Serratia plymuthica A153. To be noted: wild-type ipdc promoter oligomer; for increase of TyrRA153 DNA binding affinity: saturating ligand concentration. As for the experimental part:
as §1

The target of data set [4] is T2, TyrR (TyrRA153) (Serratia plymuthica A153, UniProt A0A318P557 1-523).
T2 sequence: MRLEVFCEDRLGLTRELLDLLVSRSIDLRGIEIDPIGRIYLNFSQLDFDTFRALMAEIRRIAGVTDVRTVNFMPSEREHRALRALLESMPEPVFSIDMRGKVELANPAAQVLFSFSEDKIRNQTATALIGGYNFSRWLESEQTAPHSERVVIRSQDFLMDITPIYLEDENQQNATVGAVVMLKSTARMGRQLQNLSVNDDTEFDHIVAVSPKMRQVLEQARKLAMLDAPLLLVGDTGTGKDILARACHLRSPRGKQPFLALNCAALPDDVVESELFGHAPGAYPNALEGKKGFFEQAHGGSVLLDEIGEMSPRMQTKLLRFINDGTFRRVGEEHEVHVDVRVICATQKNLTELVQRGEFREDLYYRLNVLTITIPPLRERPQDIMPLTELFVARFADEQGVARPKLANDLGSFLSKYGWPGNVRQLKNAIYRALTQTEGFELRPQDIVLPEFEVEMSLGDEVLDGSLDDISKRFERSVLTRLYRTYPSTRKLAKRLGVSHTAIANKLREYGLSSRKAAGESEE
As to the kind of experiment: ITC; L-Tyr + ATP (saturating; e.g. 0.1 mM L-Tyr, 0.5 mM ATP); 10 mM MgCl2; ITC: 5 mM Tris, 5 mM PIPES, 5 mM MES, 150 mM NaCl, 10 mM MgCl2, 10 mM beta-mercaptoethanol, 10% glycerol, pH 7.5, 10 C; 100 uM DNA injected into 5-20 uM TyrR. To be noted: protein: recombinant; tags: N-terminal His6; chain copies: 2; blunt.

In data set [5] the target is T2, TyrR (TyrRA153). Briefly: ITC; L-Phe (saturating; e.g. 1 mM); 10 mM MgCl2; ITC: 5 mM Tris, 5 mM PIPES, 5 mM MES, 150 mM NaCl, 10 mM MgCl2, 10 mM beta-mercaptoethanol, 10% glycerol, pH 7.5, 10 C; 100 uM DNA injected into 5-20 uM TyrR. To be noted: protein: recombinant; tags: N-terminal His6; chain copies: 2; blunt.
Data set [6] deals with T2, TyrR (TyrRA153). Briefly: ITC; no amino acid or ATP; 10 mM MgCl2; ITC: 5 mM Tris, 5 mM PIPES, 5 mM MES, 150 mM NaCl, 10 mM MgCl2, 10 mM beta-mercaptoethanol, 10% glycerol, pH 7.5, 10 C; 100 uM DNA injected into 5-20 uM TyrR. As to conditions: protein: recombinant; tags: N-terminal His6; chain copies: 2; blunt.
The mark [7] stands for this setting: ITC, in the presence of ATP, read-out: K D.
The mark [8] stands for this setting: ITC, ligand alone (absence of ATP for amino acids).
[9] abbreviates: ITC, ligand alone (absence of ATP for amino acids), read-out: K D.

Chain of HpaAA153 (A0A7T2WCJ6 entry or part of it): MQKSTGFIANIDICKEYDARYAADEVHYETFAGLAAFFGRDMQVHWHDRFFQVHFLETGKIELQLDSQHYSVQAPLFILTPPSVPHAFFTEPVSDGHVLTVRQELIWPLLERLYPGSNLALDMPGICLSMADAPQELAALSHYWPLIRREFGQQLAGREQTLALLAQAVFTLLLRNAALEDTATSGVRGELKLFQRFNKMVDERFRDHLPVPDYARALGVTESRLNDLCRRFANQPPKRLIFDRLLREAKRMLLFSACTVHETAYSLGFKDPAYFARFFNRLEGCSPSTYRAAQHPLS

As for `Cc1cccc(C(=O)O)c1` [3-methylbenzoic acid], the “binding to HpaRA153 as determined by isothermal titration calorimetry” value (“binding to HpaRA153 as determined” below) in the data set with HpaRA153 is “did not bind”. At HpaAA153, the “binding to HpaAA153 as determined by isothermal titration calorimetry” value (from here on “binding to HpaAA153 as determined”) was “did not bind”.
Turning to `O=C(O)Cc1c[nH]c2ccccc12` [IAA, Indole‐3‐acetic acid], the results for the “binding to HpaRA153 as determined” value in the data set on HpaRA153 and in the data set on HpaRA153 (listed as Indole-3-acetic acid) were “unable to observe IAA binding” and “did not bind”, respectively. For the same molecule, the “binding to HpaAA153 as determined” value on HpaAA153 is listed as “unable to observe IAA binding”; on HpaAA153 (listed as Indole-3-acetic acid), “did not bind”. Moreover, the “effect of supplementation on ipdc expression” value in the data set with ipdc promoter (0.25 mM and 1 mM, wild-type A153 and ipdc mutant) was “did not result in altered ipdc expression”. Further, the “induction of ipdc gene expression compared to the same medium lacking the ligand” value in the data set with ipdc promoter (30°C) is “No changes in ipdc expression”. The “binding to TyrRA153 as determined by isothermal titration calorimetry” value at TyrRA153 [1] was “did not bind”. The pKa in data set [2] is 4.8.
Consider `N[C@@H](Cc1ccc(O)cc1)C(=O)O` [L‐Tyr, L‐Tyrosine], for which, at TyrRA153 [3], the “increase of TyrRA153 DNA binding affinity” value is on record as 2.4 fold. The “induction of ipdc gene expression compared to the same medium lacking the ligand” value in the data set on ipdc promoter (30°C) stood at 11.0 fold. For the same molecule, at TyrRA153 [1] (ITC, in the presence of ATP), the ΔH was -6.8 ± 0.1 kcal/mol. Moreover, the Kd on TyrRA153 [1] (setting [7]) turned out to be 6 ± 0.2 µM. Besides, at TyrRA153 [1] (setting [8]), the “K D” value is reported as “No binding” and the ΔH entry is “No binding”.
`N[C@@H](Cc1c[nH]c2ccccc12)C(=O)O` [L‐Trp, L‐Tryptophan]: the “reduction of TyrRA153 DNA affinity” value at TyrRA153 [3] (presence of ligand) is 2.3 fold. In addition, the “effect of supplementation on ipdc transcription” value in the data set with ipdc promoter (LB medium, different concentrations, 30°C) is “did not result in increased ipdc transcription”. The “induction of ipdc gene expression compared to the same medium lacking the ligand” value in the data set on ipdc promoter (30°C) is given as “no changes in ipdc expression”. The “competition with L-Tyr for binding at the ATP-dependent site of TyrRA153” value at TyrRA153 [1] (ITC) is “compete with L‐Tyr for binding”. Further, on TyrRA153 [1] (ITC, in the presence of ATP), the “ΔH 1” value was -1.8 ± 0.3 kcal/mol and the “ΔH 2” value is -7.9 ± 1.7 kcal/mol. The Kd on TyrRA153 [1] (ITC, in the presence of ATP, read-out: K D1) came to 1640 µM. On TyrRA153 [1] (ITC, in the presence of ATP, read-out: K D2), the Kd came out at 2060 µM. For the same molecule, on TyrRA153 [1] (setting [8]), the “K D” value is “bound” and the ΔH is -1.6 ± 0.5 kcal/mol. Also, at TyrRA153 [1] (setting [9]), the Kd stood at 2680 ± 670 µM.
In the case of `O=C(O)c1ccccc1O` [Salicylic acid], in the data set on HpaRA153, the “binding to HpaRA153 as determined” value is listed as “did not bind”. For the same molecule, on HpaAA153, the “binding to HpaAA153 as determined” value is given as “did not bind”.
`O=C(O)Cc1cccc(O)c1` [3-hydroxyphenylacetic acid]: the “binding to HpaRA153 as determined” value in the data set on HpaRA153 is “did not bind”.
Regarding `N[C@@H](Cc1ccccc1)C(=O)O` [L‐Phe, L‐Phenylalanine], on TyrRA153 [3], the “increase of TyrRA153 DNA binding affinity” value is listed as 2.6 fold. In the data set on ipdc promoter (30°C), the “induction of ipdc gene expression compared to the same medium lacking the ligand” value was determined as 5.1 fold. In addition, the “competition with L-Tyr for binding at the ATP-dependent site of TyrRA153” value at TyrRA153 [1] (ITC) is recorded as “compete with L‐Tyr for binding”. Besides, the ΔH on TyrRA153 [1] (ITC, in the presence of ATP) was -0.2 ± 0.01 kcal/mol. The Kd on TyrRA153 [1] (setting [7]) is 193 ± 24 µM. Besides, at TyrRA153 [1] (setting [8]), the “K D” value is given as “bound; also recorded: Binding ^a” and the ΔH result was “Binding ^a”.
`O=C(O)Cc1ccc(O)c(O)c1` [3,4HPA, 3,4‐dihydroxyphenylacetic acid]: the figures for the “binding to HpaRA153 as determined” value with HpaRA153 and in the data set on HpaRA153 (listed as 3,4-dihydroxyphenylacetic acid) were “unable to observe the binding” and “did not bind”, respectively. The “binding to HpaAA153 as determined” value on HpaAA153 is reported as “did not bind”.
For `O=C(O)Cc1ccccc1` [PAA, phenylacetic acid], the entries for the “binding to HpaRA153 as determined” value in the data set on HpaRA153 and with HpaRA153 (listed as Phenylacetic acid) were “did not recognize” and “did not bind”, respectively. In addition, the “binding to HpaAA153 as determined” value on HpaAA153 is recorded as “did not recognize”; on HpaAA153 (listed as Phenylacetic acid), “did not bind”.
`O=C(O)C(=O)Cc1c[nH]c2ccccc12` [Indole-3-pyruvic acid]: the “binding to HpaRA153 as determined” value with HpaRA153 is listed as “did not bind”. Moreover, at HpaAA153, the “binding to HpaAA153 as determined” value is on record as “did not bind”.
With `O=C(O)c1ccc(O)cc1` [4‐hydroxybenzoic acid], the “binding to HpaRA153 as determined” value in the data set on HpaRA153 is given as “did not bind”. Moreover, the Kd at HpaAA153 came to 28.5 ± 2 µM. For the same molecule, on HpaAA153 (ITC, One binding site model), the ΔH was -0.4 ± 0.03 kcal/mol.
With `Nc1ncnc2c1ncn2[C@@H]1O[C@H](COP(=O)(O)OP(=O)(O)OP(=O)(O)O)[C@@H](O)[C@H]1O` [ATP], on TyrRA153 [1] (setting [8]), the ΔH was -22.9 ± 1.5 kcal/mol. Besides, the Kd at TyrRA153 [1] (setting [9]) came to 16 ± 0.7 µM.
As for `O=C(O)c1ccccc1` [Benzoic acid], the “binding to HpaRA153 as determined” value with HpaRA153 is given as “did not bind”. Further, at HpaAA153, the “binding to HpaAA153 as determined” value was “did not bind”.
For `O=C(O)Cc1ccc(O)cc1` [4HPA, 4‐hydroxyphenylacetic acid], the “binding to HpaRA153 as determined” value in the data set with HpaRA153 is “unable to observe the binding”. The molecule further came in with a Kd at HpaAA153 of 28.5 µM.

B1: Pipdc-wt-ITC (wild-type TyrR box) (dsDNA)
DNA 1: CCCCTGTAAAGGAGCCATTACATCAA
DNA 2: TTGATGTAATGGCTCCTTTACAGGGG
On to B1, for which the Kd in the data set with TyrR (TyrRA153) [4] was found to be 0.081 ± 0.01 µM; in the data set with TyrR (TyrRA153) [5], 0.074 ± 0.01 µM; with TyrR (TyrRA153) [6], 0.193 ± 0.02 µM.

B2: Pipdc-mut-ITC (mutant TyrR box) (dsDNA)
DNA 1: CCCCGACGTGGGAGCCGCCGTGTCAA
DNA 2: TTGACACGGCGGCTCCCACGTCGGGG
Consider B2, for which the binding result in the data set with TyrR (TyrRA153) [6] is on record as “no binding”.

As a reminder, the pKa is the negative logarithm of the acid dissociation constant.
